Assay results from patent publication US7504400B2, “MTP inhibiting aryl piperydines or piperazines substituted with 5-membered heterocycles” (Janssen Pharmaceutica N.V., priority 2004, dated 2009).

Test system: Secretion of ApoB
Experiment: Quantification of the secretion of ApoB in HepG2 cells
Type: cell-based
Details: Homo sapiens, HepG2, 24 h, 24 hours of incubation with test compound, immunoprecipitation of apoB from medium, read-out: pIC50 value (=-log IC50 value), secretion of ApoB (converted)
Description: HepG2 cells were cultured in 24-well plates in MEM Rega 3 containing 10% fetal calf serum. At 70% confluency, the medium was changed and the test compound or carrier (DMSO, 0.4% final concentration) was added. After 24 hours of incubation, the medium was transferred to Eppendorf tubes and cleared by centrifugation. A sheep antibody directed against either apoB was added to the supernatant and the mixture was kept at 8° C. for 24 hours. Then, rabbit anti-sheep antibody was added and the immune complex was allowed to precipitate for 24 hours at 8° C. The immunoprecipitate was pelleted by centrifugation for 25 minutes at 1320 g and washed twice with a buffer containing 40 mM Mops, 40 mM NaH2PO4, 100 mM NaF, 0.2 mM DTT, 5 mM EDTA, 5 mM EGTA, 1% Triton-X-100, 0.5% sodium deoxycholate (DOC), 0.1% SDS, 0.2 μM leupeptin and 0.2 μM PMSF. Radioactivity in the pellet was quantified by liquid scintillation-counting. The IC50 values are usually converted to pIC50 values (=−log IC50 value) for ease of use.

| IC50 [µM] | Compound |
| --- | --- |
| 0.316 to 3.16 | CC(C)NC(=O)C(c1ccccc1)N1CCN(c2ccc(-n3ncn(C(C)C)c3=O)cc2)CC1 (centres unmarked) [Compound 115] |
| 0.316 to 3.16 | C=CCNC(=O)C(c1ccccc1)N1CCN(c2ccc(-n3ncn(C(C)C)c3=O)cc2)CC1 (centres unmarked) [Compound 116] |
| 0.316 to 3.16 | COCCNC(=O)C(c1ccccc1)N1CCN(c2ccc(-n3ncn(C(C)C)c3=O)cc2)CC1 (centres unmarked) [Compound 117] |
| 0.316 to 3.16 | CCCCNC(=O)C(c1ccccc1)N1CCN(c2ccc(-n3ncn(C(C)C)c3=O)cc2)CC1 (centres unmarked) [Compound 118] |
| 0.316 to 3.16 | CC(C)CNC(=O)C(c1ccccc1)N1CCN(c2ccc(-n3ncn(C(C)C)c3=O)cc2)CC1 (centres unmarked) [Compound 119] |
| 0.316 to 3.16 | CCCCCNC(=O)C(c1ccccc1)N1CCN(c2ccc(-n3ncn(C(C)C)c3=O)cc2)CC1 (centres unmarked) [Compound 120] |
| 0.316 to 3.16 | CC(C)n1cnn(-c2ccc(N3CCN(C(C(=O)NCc4ccccn4)c4ccccc4)CC3)cc2)c1=O (centres unmarked) [Compound 121] |
| 0.316 to 3.16 | CC(C)n1cnn(-c2ccc(N3CCN(C(C(=O)NCC(F)(F)F)c4ccccc4)CC3)cc2)c1=O (centres unmarked) [Compound 122] |
| 0.0316 to 0.316 | CC(C)n1cnn(-c2ccc(N3CCN(C(C(=O)NCc4ccccc4)c4ccccc4)CC3)cc2)c1=O (centres unmarked) [Compound 123] |
| 0.0316 to 0.316 | CCCn1ncn(-c2ccc(N3CCN(C(C(=O)Nc4ccccc4)c4ccccc4)CC3)cc2)c1=O (centres unmarked) [Compound 124] |
| 0.0316 to 0.316 | Cc1cnc(NC(=O)C(c2ccccc2)N2CCN(c3ccc(-n4cnn(C(C)C)c4=O)cc3)CC2)s1 (centres unmarked) [Compound 125] |
| 0.316 to 3.16 | CC(C)n1ncn(-c2ccc(N3CCN(C(C(=O)NCc4ccc(N)cc4)c4ccccc4)CC3)cc2)c1=O (centres unmarked) [Compound 126] |
| 0.316 to 3.16 | CC(C)n1ncn(-c2ccc(N3CCN(C(C(=O)NCc4nc5ccccc5[nH]4)c4ccccc4)CC3)cc2)c1=O (centres unmarked) [Compound 127] |
| 0.0316 to 0.316 | CCCNC(=O)C(CN1CCN(c2ccc(-n3cnn(C(C)C)c3=O)cc2)CC1)c1ccccc1 (centres unmarked) [Compound 128] |
| 0.316 to 3.16 | CC(C)n1ncn(-c2ccc(N3CCN(CC(C(=O)Nc4ccccc4)c4ccccc4)CC3)cc2)c1=O (centres unmarked) [Compound 129] |
| 0.316 to 3.16 | CC(C)n1ncn(-c2ccc(N3CCN(CC(C(=O)NCc4ccccc4)c4ccccc4)CC3)cc2)c1=O (centres unmarked) [Compound 130] |
| 0.316 to 3.16 | COCCNC(=O)C(c1ccccc1)N1CCN(c2ccc(-n3cnn(C(C)C)c3=O)cc2)CC1 (centres unmarked) [Compound 131] |
| 0.316 to 3.16 | CC(C)n1ncn(-c2ccc(N3CCN(C(C(=O)NCCC#N)c4ccccc4)CC3)cc2)c1=O (centres unmarked) [Compound 132] |
| 0.316 to 3.16 | CCNC(=O)C(c1ccccc1)(c1ccccc1)N1CCN(c2ccc(-n3cnn(C(C)C)c3=O)cc2)CC1 [Compound 133] |
| 0.316 to 3.16 | CCCNC(=O)C(c1ccccc1)(c1ccccc1)N1CCN(c2ccc(-n3cnn(C(C)C)c3=O)cc2)CC1 [Compound 134] |
| 0.316 to 3.16 | CC(C)NC(=O)C(c1ccccc1)(c1ccccc1)N1CCN(c2ccc(-n3cnn(C(C)C)c3=O)cc2)CC1 [Compound 135] |
| 0.316 to 3.16 | CNC(=O)C(c1ccccc1)N1CCN(c2ccc(-n3cnn(C(C)C)c3=O)cc2)CC1 (centres unmarked) [Compound 136] |
| 0.316 to 3.16 | CC(C)n1ncn(-c2ccc(N3CCN(C(C(=O)N(C)C)c4ccccc4)CC3)cc2)c1=O (centres unmarked) [Compound 137] |
| 0.316 to 3.16 | CCOC(=O)C(CN1CCN(c2ccc(-n3cnn(C(C)C)c3=O)cc2)CC1)c1ccccc1 (centres unmarked) [Compound 138] |
| 0.0316 to 0.316 | CCNC(=O)C(c1ccccc1)N1CCC(c2ccc(-n3cnn(C(C)C)c3=O)cc2)CC1 (centres unmarked) [Compound 139] |
| 0.0316 to 0.316 | CC(C)NC(=O)C(c1ccccc1)N1CCC(c2ccc(-n3cnn(C(C)C)c3=O)cc2)CC1 (centres unmarked) [Compound 140] |
| 0.0316 to 0.316 | CNC(=O)C(c1ccccc1)N1CCC(c2ccc(-n3cnn(C(C)C)c3=O)cc2)CC1 (centres unmarked) [Compound 142] |
| 0.0316 to 0.316 | CC(C)n1ncn(-c2ccc(C3CCN(C(C(=O)NCC(F)(F)F)c4ccccc4)CC3)cc2)c1=O (centres unmarked) [Compound 143] |
| 0.316 to 3.16 | CC(C)n1ncn(-c2ccc(C3CCN(C(C(=O)N(C)C)c4ccccc4)CC3)cc2)c1=O (centres unmarked) [Compound 144] |
